Test results published in ChEMBL document CHEMBL4184295, “7α,15-Dihydroxydehydroabietic acid from Pinus koraiensis inhibits the promotion of angiogenesis through downregulation of VEGF, p-Akt and p-ERK in HUVECs” (Bioorg Med Chem Lett, 2018).
Values belong to the compound of their own block, whether it stands above or below them.

Legend:
[1] = test system: HUVEC; experiment: Cytotoxicity against HUVEC assessed as reduction in cell viability up to 100 uM after 24 hrs by MTT assay; assay type: cell-based; conditions: human
[2] = test system: HUVEC; experiment: Antiangiogenic activity against HUVEC assessed as reduction in tube formation at 12.5 uM after 24 hrs by matrigel-based light microscopic analysis relative to control; assay type: functional, Homo sapiens; design: scale not given: the % may be the effect or the level left
[3] = test system: HUVEC; experiment: Inhibition of ERK phosphorylation in HUVEC at 3.125 uM after 24 hrs by Western blot analysis relative to control; assay type: cell-based; conditions: Homo sapiens
[4] = test system: HUVEC; experiment: Down regulation of VEGF expression in HUVEC at 6.25 uM after 24 hrs by Western blot analysis relative to control; assay type: functional, Homo sapiens
[5] = biological target: RAC-alpha serine/threonine-protein kinase (Homo sapiens) (UniProt P31749); experiment: Inhibition of AKT phosphorylation in HUVEC at 6.25 uM after 24 hrs by Western blot analysis relative to control; assay type: cell-based
[6] = test system: HUVEC; experiment: Antiangiogenic activity against HUVEC assessed as reduction in tube formation at 6.25 uM after 24 hrs by matrigel-based light microscopic analysis relative to control; assay type: functional, Homo sapiens; design: scale not given: the % may be the effect or the level left
[7] = test system: HUVEC; experiment: Inhibition of ERK phosphorylation in HUVEC at 6.25 uM after 24 hrs by Western blot analysis relative to control; assay type: cell-based; conditions: Homo sapiens
[8] = test system: HUVEC; experiment: Down regulation of VEGF expression in HUVEC at 3.125 uM after 24 hrs by Western blot analysis relative to control; assay type: functional, Homo sapiens
[9] = biological target: RAC-alpha serine/threonine-protein kinase (Homo sapiens) (UniProt P31749); experiment: Inhibition of AKT phosphorylation in HUVEC at 3.125 uM after 24 hrs by Western blot analysis relative to control; assay type: cell-based
[10] = test system: HUVEC; experiment: Antiangiogenic activity against HUVEC assessed as reduction in tube formation at 100 uM after 24 hrs by matrigel-based light microscopic analysis relative to control; assay type: functional, Homo sapiens; design: scale not given: the % may be the effect or the level left

Chain of RAC-alpha serine/threonine-protein kinase (Homo sapiens) (P31749 whole entry): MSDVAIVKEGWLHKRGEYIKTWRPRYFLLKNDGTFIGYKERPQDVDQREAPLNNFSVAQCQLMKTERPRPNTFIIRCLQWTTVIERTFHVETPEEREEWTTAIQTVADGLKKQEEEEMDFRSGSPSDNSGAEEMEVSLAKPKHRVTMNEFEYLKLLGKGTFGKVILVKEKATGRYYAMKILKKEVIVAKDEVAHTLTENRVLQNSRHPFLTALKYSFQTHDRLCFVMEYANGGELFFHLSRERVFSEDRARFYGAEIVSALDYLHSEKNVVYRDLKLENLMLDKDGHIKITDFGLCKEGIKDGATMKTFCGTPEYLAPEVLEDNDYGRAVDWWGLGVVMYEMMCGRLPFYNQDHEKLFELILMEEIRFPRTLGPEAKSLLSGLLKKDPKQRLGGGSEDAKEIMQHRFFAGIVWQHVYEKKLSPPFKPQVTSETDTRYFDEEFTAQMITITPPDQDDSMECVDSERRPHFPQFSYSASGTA

Compound: O=C(O)c1ccc(O)cc1 [PARABEN]
Activity [1]: Non-Toxic

Compound: CC(C)(O)c1ccc2c(c1)C(=O)C[C@H]1[C@](C)(C(=O)O)CCC[C@]21C
Activity [1]: Non-Toxic

Compound: C=C(C)[C@@H]1CC[C@](C)(O)[C@@H](O)C1
Activity [1]: Toxic

Compound: CC(C)c1ccc2c(c1)CC[C@H]1[C@](C)(C(=O)O)CCC[C@]21C [DEHYDROABIETIC ACID]
Activity [2]: 12.09%
Activity [1]: Toxic

Compound: CC1=CC[C@@H](C(C)(C)O)C[C@@H]1O
Activity [1]: Non-Toxic

fold change (FC) [5]: 0.68
fold change (FC) [9]: 1.1
Compound: CC(C)(O)c1ccc2c(c1)[C@H](O)C[C@H]1[C@](C)(C(=O)O)CCC[C@]21C
fold change (FC) [3]: 0.98
fold change (FC) [4]: 0.69
Activity [6]: 20.53%
fold change (FC) [7]: 0.82
fold change (FC) [8]: 0.89
Activity [1]: Toxic

Compound: CC(C)(O)c1ccc2c(c1)[C@@H](O)C[C@H]1[C@](C)(C(=O)O)CCC[C@]21C
Activity [10]: 8.95%
Activity [1]: Non-Toxic

Compound: C=C1CC[C@@H]2[C@](C)(CCC[C@@]2(C)C(=O)O[C@@H]2O[C@H](CO)[C@@H](O)[C@H](O)[C@H]2O)[C@H]1CCC1=CCOC1=O
Activity [1]: Toxic
